Measured values as given in ChEMBL document CHEMBL5356962, “Synthesis, activity, and their relationships of 2,4-diaminonicotinamide derivatives as EGFR inhibitors targeting C797S mutation” (Bioorg Med Chem Lett, 2024).

What was measured:
BaF3 [1] = assay: Inhibition of cell proliferation of mouse BaF3 cells expressing EGFR Del19/T790M/C797S mutant (unknown origin); type: functional
BaF3 [2] = assay: Inhibition of cell proliferation of mouse BaF3 cells expressing EGFR L858R/T790M/C797S mutant (unknown origin); type: functional
BaF3 [3] = assay: Inhibition of cell proliferation of mouse BaF3 cells expressing wild-type EGFR (unknown origin); type: functional
[4] = target: Epidermal growth factor receptor (Homo sapiens, UniProt P00533, C797S/EX19DEL/T790M); assay: Inhibition of EGFR Del19/T790M/C797S mutant (unknown origin) phosphorylation
Epidermal growth factor receptor (Homo sapiens, UniProt P00533, C797S/EX19DEL/T790M), sequence (P00533 whole entry, looked up, stated change not applied): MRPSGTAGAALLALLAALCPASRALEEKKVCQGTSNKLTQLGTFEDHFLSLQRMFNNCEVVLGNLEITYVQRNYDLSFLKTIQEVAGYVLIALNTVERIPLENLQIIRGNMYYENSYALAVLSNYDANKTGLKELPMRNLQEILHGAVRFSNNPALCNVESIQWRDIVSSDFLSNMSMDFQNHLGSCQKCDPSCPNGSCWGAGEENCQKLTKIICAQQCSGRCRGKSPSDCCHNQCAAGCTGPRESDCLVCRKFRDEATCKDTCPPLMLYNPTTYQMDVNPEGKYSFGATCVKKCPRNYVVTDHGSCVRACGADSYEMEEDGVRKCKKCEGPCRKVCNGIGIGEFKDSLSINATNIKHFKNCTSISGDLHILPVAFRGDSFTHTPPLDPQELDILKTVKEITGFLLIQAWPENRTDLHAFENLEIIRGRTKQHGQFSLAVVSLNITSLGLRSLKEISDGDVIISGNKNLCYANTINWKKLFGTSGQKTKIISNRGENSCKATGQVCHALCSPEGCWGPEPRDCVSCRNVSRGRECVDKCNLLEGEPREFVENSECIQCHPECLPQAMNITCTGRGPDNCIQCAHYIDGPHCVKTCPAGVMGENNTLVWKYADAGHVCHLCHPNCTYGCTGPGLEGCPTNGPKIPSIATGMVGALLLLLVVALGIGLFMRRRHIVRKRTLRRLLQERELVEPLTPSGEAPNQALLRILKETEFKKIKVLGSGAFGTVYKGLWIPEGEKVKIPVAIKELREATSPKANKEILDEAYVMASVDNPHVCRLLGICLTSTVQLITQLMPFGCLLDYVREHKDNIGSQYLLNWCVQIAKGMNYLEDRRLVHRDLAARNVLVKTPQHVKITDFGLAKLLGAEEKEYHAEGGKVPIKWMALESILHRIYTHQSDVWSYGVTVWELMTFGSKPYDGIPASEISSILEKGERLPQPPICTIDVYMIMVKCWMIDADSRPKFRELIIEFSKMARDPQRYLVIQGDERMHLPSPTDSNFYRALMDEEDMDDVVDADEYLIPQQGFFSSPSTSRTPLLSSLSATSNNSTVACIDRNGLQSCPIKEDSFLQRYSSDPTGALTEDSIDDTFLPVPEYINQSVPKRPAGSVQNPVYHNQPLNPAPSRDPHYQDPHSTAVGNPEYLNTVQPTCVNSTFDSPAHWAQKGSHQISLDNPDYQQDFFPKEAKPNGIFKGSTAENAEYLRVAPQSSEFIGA

[5] = target: Epidermal growth factor receptor (Homo sapiens, UniProt P00533, C797S/L858R/T790M); assay: Inhibition of EGFR L858R/T790M/C797S mutant (unknown origin) phosphorylation
Epidermal growth factor receptor (Homo sapiens, UniProt P00533, C797S/L858R/T790M), sequence (P00533 25-1210 T790M/C797S/L858R limits assumed): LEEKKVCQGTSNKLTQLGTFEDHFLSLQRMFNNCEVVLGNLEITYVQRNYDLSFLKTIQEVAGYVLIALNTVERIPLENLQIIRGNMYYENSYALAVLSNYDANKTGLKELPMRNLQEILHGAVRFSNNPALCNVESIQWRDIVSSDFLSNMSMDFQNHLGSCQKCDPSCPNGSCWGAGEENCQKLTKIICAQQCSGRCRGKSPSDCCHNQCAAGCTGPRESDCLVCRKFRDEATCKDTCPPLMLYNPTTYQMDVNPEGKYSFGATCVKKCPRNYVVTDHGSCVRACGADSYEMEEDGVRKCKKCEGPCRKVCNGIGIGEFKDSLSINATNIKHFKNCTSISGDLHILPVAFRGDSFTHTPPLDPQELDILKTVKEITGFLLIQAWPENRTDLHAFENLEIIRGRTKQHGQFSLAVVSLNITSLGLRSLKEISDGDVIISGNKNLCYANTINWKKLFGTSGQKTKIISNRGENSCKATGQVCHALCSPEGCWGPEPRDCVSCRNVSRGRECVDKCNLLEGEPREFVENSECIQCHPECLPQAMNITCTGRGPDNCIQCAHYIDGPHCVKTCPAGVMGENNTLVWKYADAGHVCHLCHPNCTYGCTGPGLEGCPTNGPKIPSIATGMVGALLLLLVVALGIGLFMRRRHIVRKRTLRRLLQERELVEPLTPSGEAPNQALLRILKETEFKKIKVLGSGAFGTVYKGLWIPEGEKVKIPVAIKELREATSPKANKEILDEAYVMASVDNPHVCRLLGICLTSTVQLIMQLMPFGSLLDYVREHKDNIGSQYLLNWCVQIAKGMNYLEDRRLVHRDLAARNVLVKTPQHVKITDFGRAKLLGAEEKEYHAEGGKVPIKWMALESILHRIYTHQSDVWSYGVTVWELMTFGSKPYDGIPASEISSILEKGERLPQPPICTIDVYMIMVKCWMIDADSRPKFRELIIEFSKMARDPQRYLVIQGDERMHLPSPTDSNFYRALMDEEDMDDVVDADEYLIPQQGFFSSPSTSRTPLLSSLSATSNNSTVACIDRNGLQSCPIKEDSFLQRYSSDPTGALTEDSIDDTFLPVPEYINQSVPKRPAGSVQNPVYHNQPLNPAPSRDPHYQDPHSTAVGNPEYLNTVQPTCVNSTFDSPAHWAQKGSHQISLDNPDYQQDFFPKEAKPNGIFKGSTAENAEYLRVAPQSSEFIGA

[6] = target: Epidermal growth factor receptor (Homo sapiens, UniProt P00533); assay: Inhibition of wild-type EGFR (unknown origin) phosphorylation
Epidermal growth factor receptor (Homo sapiens, UniProt P00533), sequence (P00533 whole entry): as the sequence (P00533 whole entry, looked up, stated change not applied) above

| Structure (SMILES) | GI50 (BaF3 [1]; Mus musculus, BaF3) [nM] | GI50 (BaF3 [2]; Mus musculus, BaF3) [nM] | GI50 (BaF3 [3]; Mus musculus, BaF3) [nM] | IC50 [4] [nM] | IC50 [5] [nM] | IC50 [6] [nM] | GI50 (BaF3 [1]) [nM] | GI50 (BaF3 [2]) [nM] | GI50 (BaF3 [3]) [nM] |
| --- | --- | --- | --- | --- | --- | --- | --- | --- | --- |
| CC(C)Oc1cc(Nc2ccnc(-c3cnn(S(=O)(=O)C4CC4)c3)n2)ncc1C(=O)N1CC(C(C)(C)O)C1 | – | – | – | > 5000 | > 5000 | > 5000 | – | – | – |
| CC[C@H](C)Nc1cc(Nc2ccnc(-c3cnn(S(=O)(=O)C4CC4)c3)n2)ncc1C(=O)NC1CCOCC1 | 156 | 452 | 1660 | – | – | – | – | – | – |
| C=CC(=O)Nc1cc(Nc2nccc(-c3cn(C)c4ccccc34)n2)c(OC)cc1N(C)CCN(C)C [OSIMERTINIB] | – | – | – | – | – | – | 2060 | 1290 | 107 |
| CC[C@H](C)Nc1cc(Nc2ccnc(-c3cnn(S(=O)(=O)C4CC4)c3)n2)ncc1C(=O)N(C)C | – | – | – | 450 | 300 | > 5000 | – | – | – |
| CC(C)Nc1cc(Nc2ccnc(-c3cnn(S(=O)(=O)C4CC4)c3)n2)ncc1C(=O)N1CC(C(C)(C)O)C1 | – | – | – | 72 | 51 | 552 | – | – | – |
| CC[C@H](C)Nc1cc(Nc2ccnc(-c3cnn(S(=O)(=O)C4CC4)c3)n2)ncc1C(=O)N1CC(C(C)(C)O)C1 | – | – | – | 30 | 22 | 235 | – | – | – |
| CCNS(=O)(=O)c1cnc(Nc2ccnc(-c3cnn(S(=O)(=O)C4CC4)c3)n2)cc1N[C@@H](C)CC | – | – | – | > 5000 | 4880 | > 5000 | – | – | – |
| CC[C@H](C)Nc1cc(Nc2ccnc(-c3cnn(S(=O)(=O)C4CC4)c3)n2)ncc1C(=O)NCCCF | 56 | 129 | 1050 | 4.5 | 3.7 | 55 | – | – | – |

The remaining lines, values ahead:

| GI50 (BaF3 [1]; Mus musculus, BaF3) [nM] | GI50 (BaF3 [2]; Mus musculus, BaF3) [nM] | GI50 (BaF3 [3]; Mus musculus, BaF3) [nM] | IC50 [4] [nM] | IC50 [5] [nM] | IC50 [6] [nM] | GI50 (BaF3 [1]) [nM] | GI50 (BaF3 [2]) [nM] | GI50 (BaF3 [3]) [nM] | Structure (SMILES) |
| --- | --- | --- | --- | --- | --- | --- | --- | --- | --- |
| 35 | 81 | 1080 | – | – | – | – | – | – | CC[C@H](C)Nc1cc(Nc2ccnc(-c3cnn(S(=O)(=O)C4CC4)c3)n2)ncc1C(=O)NCCC(F)F |
| 72 | 191 | 1270 | 6 | 5.6 | 77 | – | – | – | CCNC(=O)c1cnc(Nc2ccnc(-c3cnn(S(=O)(=O)C4CC4)c3)n2)cc1N[C@@H](C)CC |
| 193 | 446 | 1220 | 11 | 10 | 265 | – | – | – | CC[C@H](C)Nc1cc(Nc2ccnc(-c3cnn(S(=O)(=O)C4CC4)c3)n2)ncc1C(=O)NCCN(C)C |
| 68 | 163 | 927 | 3.6 | 3.6 | 45 | – | – | – | CC[C@H](C)Nc1cc(Nc2ccnc(-c3cnn(S(=O)(=O)C4CC4)c3)n2)ncc1C(=O)NC |
| – | – | – | 13 | 11 | 212 | – | – | – | CCC(=O)c1cnc(Nc2ccnc(-c3cnn(S(=O)(=O)C4CC4)c3)n2)cc1N[C@@H](C)CC |
